The target in one experiment is T1, STAT6 (Homo sapiens, UniProt P42226).
T1 construct: stably transfected HaCaT keratinocyte cell line, which expresses NanoLuc luciferase reporter gene under the transcriptional control of the STAT6 responsive promoter; endogenous in cells; host or cells: HaCaT keratinocyte reporter cell line (stably transfected with a NanoLuc reporter)
T1 sequence (P42226 1-847): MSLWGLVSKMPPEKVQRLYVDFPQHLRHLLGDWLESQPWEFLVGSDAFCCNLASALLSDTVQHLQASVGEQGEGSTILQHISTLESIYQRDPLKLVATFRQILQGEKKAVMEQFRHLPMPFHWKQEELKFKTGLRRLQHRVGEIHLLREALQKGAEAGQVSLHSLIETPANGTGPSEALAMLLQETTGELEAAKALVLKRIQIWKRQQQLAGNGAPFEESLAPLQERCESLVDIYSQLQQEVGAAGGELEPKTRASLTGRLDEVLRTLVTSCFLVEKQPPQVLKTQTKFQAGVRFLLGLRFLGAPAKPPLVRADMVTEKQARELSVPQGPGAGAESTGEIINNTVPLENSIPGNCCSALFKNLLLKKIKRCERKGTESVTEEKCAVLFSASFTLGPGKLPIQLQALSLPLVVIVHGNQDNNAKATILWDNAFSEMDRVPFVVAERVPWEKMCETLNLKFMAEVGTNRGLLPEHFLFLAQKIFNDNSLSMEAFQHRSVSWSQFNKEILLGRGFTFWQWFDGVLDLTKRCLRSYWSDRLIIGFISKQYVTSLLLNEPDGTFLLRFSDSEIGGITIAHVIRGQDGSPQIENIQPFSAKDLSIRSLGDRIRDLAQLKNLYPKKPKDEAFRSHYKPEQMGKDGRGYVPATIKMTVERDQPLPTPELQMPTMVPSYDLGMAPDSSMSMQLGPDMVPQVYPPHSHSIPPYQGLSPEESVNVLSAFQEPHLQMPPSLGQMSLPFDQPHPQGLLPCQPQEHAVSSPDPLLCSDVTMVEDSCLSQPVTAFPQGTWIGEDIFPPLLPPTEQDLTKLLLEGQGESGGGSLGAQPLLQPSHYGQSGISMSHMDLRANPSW
Briefly: STAT6 Reporter Luciferase Assay (IL-13 stimulated HaCaT keratinocyte NanoLuc reporter cells). The experiment is classed as cell-based. The note with it: IL-13 stimulated HaCaT STAT6 NanoLuc reporter cells; read-out: Reporter EC50. In outline: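 Compounds were tested as 11-point, 4-fold series in duplicate, applied for 2 h at 37 °C in low-serum (2% FBS) DMEM. The cells were a stable HaCaT line with NanoLuc under a STAT6-responsive IL-13Ra2 promoter. After 4 h with 0.12 nM IL-13, Nano-Glo luminescence was measured.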

The subject of experiment [1] is CCL17 secretion in peripheral human whole blood. As to the kind of experiment: Human Whole Blood (HWB) CCL17 TR-FRET Assay (IL-13 stimulated CCL17 secretion). The experiment is classed as cell-based. The note with it: Homo sapiens, 48 h, human whole blood. In outline:
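IC50 comes from serum CCL17 measured by a TR-FRET sandwich assay (16 h at room temperature, 665/615 nm ratio). Beforehand, blood in sodium heparin was exposed to an 11-point, 3-fold compound series for 2 h at 37°C and then to 10 ng/mL IL-13 for 48 h.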

Each structure is given as a SMILES string.

Turning to `CC(C)n1nc(C(=O)NCc2ccc(NC(=O)N3CCN(C)CC3)cc2)c2c1[C@@H](C)CN(c1ccc(-c3ncnn3C3CC3)cn1)C2` [Example 649, (S)-5-(5-(1-cyclopropyl-1H-1,2,4-triazol-5-yl)pyridin-2-yl)-1-isopropyl-7-methyl-N-(4-(4-methylpiperazine-1-carboxamido)benzyl)-4,5,6,7-tetrahydro-1H-pyrazolo[4,3-c]pyridine-3-carboxamide], the half-maximal effective concentration (EC50) at STAT6 turned out to be 1 nM. The molecule further came in with a 50% inhibitory concentration (IC50) in experiment [1] (10 ng/mL IL13, 48 hours) of 24 nM.

`CC(C)n1nc(C(=O)NCc2ccc(NC(=O)N3CCNCC3)nc2)c2c1[C@@H](C)CN(c1ccc(C(=O)N(C)C)cc1)C2` [Example 699, (S)-5-(4-(dimethylcarbamoyl)phenyl)-1-isopropyl-7-methyl-N-((6-(piperazine-1-carboxamido)pyridin-3-yl)methyl)-4,5,6,7-tetrahydro-1H-pyrazolo[4,3-c]pyridine-3-carboxamide]: the EC50 on STAT6 came to 4 nM. Moreover, the IC50 in experiment [1] (10 ng/mL IL13, 48 hours) was found to be 27 nM.

`CC(C)n1nc(C(=O)NCc2ccc(NC(=O)N3CCNCC3)cn2)c2c1[C@@H](C)CN(c1ccc(C(=O)N(C)C)cc1)C2` [Example 700, (S)-5-(4-(dimethylcarbamoyl)phenyl)-1-isopropyl-7-methyl-N-((5-(piperazine-1-carboxamido)pyridin-2-yl)methyl)-4,5,6,7-tetrahydro-1H-pyrazolo[4,3-c]pyridine-3-carboxamide]: on STAT6, the concentration giving a half-maximal response (EC50) was found to be 5 nM. Moreover, the IC50 in experiment [1] (10 ng/mL IL13, 48 hours) is 22 nM.

As to `CC(C)n1nc(C(=O)NCc2ccc(NC(=O)N(C)C)cc2)c2c1[C@@H](C)CN(c1ccc(C(=O)N3CCN(C)CC3)cc1)C2` [Example 706, (S)-N-(4-(3,3-dimethylureido)benzyl)-1-isopropyl-7-methyl-5-(4-(4-methylpiperazine-1-carbonyl)phenyl)-4,5,6,7-tetrahydro-1H-pyrazolo[4,3-c]pyridine-3-carboxamide], the concentration giving a half-maximal response (EC50) on STAT6 turned out to be 27 nM. Further, the IC50 in experiment [1] (IL-13 10 ng/mL) came to 191 nM.

As for `COCCC1(N)CCN(C(=O)Nc2ccc(CNC(=O)c3nn(C(C)C)c4c3CN(c3ccc(C(=O)N(C)C)cc3)C[C@@H]4C)cc2)CC1` [Example 708, (S)-N-(4-(4-amino-4-(2-methoxyethyl)piperidine-1-carboxamido)benzyl)-5-(4-(dimethylcarbamoyl)phenyl)-1-isopropyl-7-methyl-4,5,6,7-tetrahydro-1H-pyrazolo[4,3-c]pyridine-3-carboxamide], the EC50 at STAT6 was 1 nM. In experiment [1] (IL-13 10 ng/mL), this molecule had a half-maximal inhibitory concentration (IC50) of 8 nM.

Regarding `CC(C)n1nc(C(=O)NCc2ccc(NC(=O)N3CCN(C)CC3)c(F)c2)c2c1[C@@H](C)CN(c1ccc(C(=O)N3Cc4cccnc4C3)cc1)C2` [Example 711, (S)-5-(4-(6,7-dihydro-5H-pyrrolo[3,4-b]pyridine-6-carbonyl)phenyl)-N-(3-fluoro-4-(4-methylpiperazine-1-carboxamido)benzyl)-1-isopropyl-7-methyl-4,5,6,7-tetrahydro-1H-pyrazolo[4,3-c]pyridine-3-carboxamide], the concentration giving a half-maximal response (EC50) on STAT6 stood at 0.5 nM. This molecule also registered an IC50 in experiment [1] (IL-13 10 ng/mL) of 18 nM.

In the case of `CC(C)n1nc(C(=O)NCc2ccc(NC(=O)N3CCN(C)CC3)cc2Cl)c2c1[C@@H](C)CN(c1ccc(C(=O)N(C)C)cc1)C2` [Example 712, (S)-N-(2-chloro-4-(4-methylpiperazine-1-carboxamido)benzyl)-5-(4-(dimethylcarbamoyl)phenyl)-1-isopropyl-7-methyl-4,5,6,7-tetrahydro-1H-pyrazolo[4,3-c]pyridine-3-carboxamide], at STAT6, the concentration giving a half-maximal response (EC50) is 3 nM. Also, in experiment [1] (IL-13 10 ng/mL), the midpoint of inhibition, the IC50, lay at 64 nM.

On to `CC(C)n1nc(C(=O)NCc2ccc(NC(=O)N3CCN(C)CC3)c(F)c2)c2c1[C@@H](C)CN(c1ccc(-n3ccccc3=O)cc1)C2` [Example 715, (S)-N-(3-fluoro-4-(4-methylpiperazine-1-carboxamido)benzyl)-1-isopropyl-7-methyl-5-(4-(2-oxopyridin-1(2H)-yl)phenyl)-4,5,6,7-tetrahydro-1H-pyrazolo[4,3-c]pyridine-3-carboxamide], for which, at STAT6, the EC50 was found to be 5 nM. In experiment [1] (IL-13 10 ng/mL), this molecule showed an IC50 of 68 nM.

As for `CCn1nc(C(=O)NCc2ccc(NC(=O)N3CC(NC)C3)c(F)c2)c2c1[C@@H](C)CN(c1ccc(C(=O)N(C)C)cc1)C2` [Example 716, (S)-5-(4-(dimethylcarbamoyl)phenyl)-1-ethyl-N-(3-fluoro-4-(3-(methylamino)azetidine-1-carboxamido)benzyl)-7-methyl-4,5,6,7-tetrahydro-1H-pyrazolo[4,3-c]pyridine-3-carboxamide], the concentration for a half-maximal effect (EC50) on STAT6 was 3 nM. For the same molecule, in experiment [1] (IL-13 10 ng/mL), the half-maximal inhibitory concentration (IC50) came out at 25 nM.

For `CC(C)n1nc(C(=O)NCc2ccc(NC(=O)N3CCN(C)CC3)c(Cl)c2)c2c1[C@@H](C)CN(c1ccc(C(=O)N(C)C)cc1)C2` [Example 717, (S)-N-(3-chloro-4-(4-methylpiperazine-1-carboxamido)benzyl)-5-(4-(dimethylcarbamoyl)phenyl)-1-isopropyl-7-methyl-4,5,6,7-tetrahydro-1H-pyrazolo[4,3-c]pyridine-3-carboxamide], the concentration giving a half-maximal response (EC50) on STAT6 was determined as 3 nM. The molecule further came in with an IC50 in experiment [1] (IL-13 10 ng/mL) of 29 nM.

As to `CC(C)n1nc(C(=O)NCc2ccc(NC(=O)N3CCN(C)CC3)cc2F)c2c1[C@@H](C)CN(c1ccc(C(=O)N(C)C)cc1)C2` [Example 718, (S)-5-(4-(dimethylcarbamoyl)phenyl)-N-(2-fluoro-4-(4-methylpiperazine-1-carboxamido)benzyl)-1-isopropyl-7-methyl-4,5,6,7-tetrahydro-1H-pyrazolo[4,3-c]pyridine-3-carboxamide], the EC50 at STAT6 is 1 nM. Further, the concentration for half-maximal inhibition (IC50) in experiment [1] (IL-13 10 ng/mL) turned out to be 18 nM.

`CC(C)n1nc(C(=O)NCc2ccc(C(N)=O)cc2)c2c1[C@@H](C)CN(c1ncc(-c3nccn3C)cn1)C2` [Example 719, (S)-N-(4-carbamoylbenzyl)-1-isopropyl-7-methyl-5-(5-(1-methyl-1H-imidazol-2-yl)pyrimidin-2-yl)-4,5,6,7-tetrahydro-1H-pyrazolo[4,3-c]pyridine-3-carboxamide]: the 50% effective concentration (EC50) at STAT6 stood at 1000 nM. Besides, the IC50 in experiment [1] (IL-13 10 ng/mL) turned out to be 3690 nM.

In the case of `CC(C)n1nc(C(=O)NCc2ccc(NC(=O)C3CCN(C)CC3)c(F)c2)c2c1[C@@H](C)CN(c1ccc(C(=O)N(C)C)cc1)C2` [Example 721, (S)-5-(4-(dimethylcarbamoyl)phenyl)-N-(3-fluoro-4-(1-methylpiperidine-4-carboxamido)benzyl)-1-isopropyl-7-methyl-4,5,6,7-tetrahydro-1H-pyrazolo[4,3-c]pyridine-3-carboxamide], on STAT6, the concentration for a half-maximal effect (EC50) is 12 nM. For the same molecule, the IC50 in experiment [1] (IL-13 10 ng/mL) was 102 nM.

In the case of `CN[C@@H]1CCN(C(=O)Nc2ccc(CNC(=O)c3nn(C(C)C)c4c3CN(c3ccc(C(=O)N(C)C)cc3)C[C@@H]4C)cc2)C1` [Example 722, (S)-5-(4-(dimethylcarbamoyl)phenyl)-1-isopropyl-7-methyl-N-(4-((R)-3-(methylamino)pyrrolidine-1-carboxamido)benzyl)-4,5,6,7-tetrahydro-1H-pyrazolo[4,3-c]pyridine-3-carboxamide], at STAT6, the EC50 was determined as 8 nM. Further, the IC50 in experiment [1] (IL-13 10 ng/mL) was found to be 40 nM.

In the case of `Cc1coc(-c2ccc(CNC(=O)c3nn(C(C)C)c4c3CN(c3ccc(C(=O)N(C)C)cc3)C[C@@H]4C)cc2)n1` [Example 723, (S)-5-(4-(dimethylcarbamoyl)phenyl)-1-isopropyl-7-methyl-N-(4-(4-methyloxazol-2-yl)benzyl)-4,5,6,7-tetrahydro-1H-pyrazolo[4,3-c]pyridine-3-carboxamide], the EC50 on STAT6 stood at 128 nM. In experiment [1] (IL-13 10 ng/mL), the midpoint of inhibition, the IC50, lay at 665 nM.

Consider `Cc1cncc(-c2ccc(CNC(=O)c3nn(C(C)C)c4c3CN(c3ccc(C(=O)N(C)C)cc3)C[C@H]4C)cc2)n1` [Example 724, (R)-5-(4-(dimethylcarbamoyl)phenyl)-1-isopropyl-7-methyl-N-(4-(6-methylpyrazin-2-yl)benzyl)-4,5,6,7-tetrahydro-1H-pyrazolo[4,3-c]pyridine-3-carboxamide], for which the EC50 at STAT6 worked out at 129 nM. It took 5060 nM to reach half-maximal inhibition in experiment [1] (IL-13 10 ng/mL) (IC50).

For the molecule `CC(C)n1nc(C(=O)NCc2ccc(-c3ccn(C)n3)cc2)c2c1[C@@H](C)CN(c1ccc(C(=O)N(C)C)cc1)C2` [Example 725, (S)-5-(4-(dimethylcarbamoyl)phenyl)-1-isopropyl-7-methyl-N-(4-(1-methyl-1H-pyrazol-3-yl)benzyl)-4,5,6,7-tetrahydro-1H-pyrazolo[4,3-c]pyridine-3-carboxamide], the 50% effective concentration (EC50) at STAT6 is 177 nM. This molecule displayed a half-maximal inhibitory concentration (IC50) in experiment [1] (IL-13 10 ng/mL) of 4460 nM.

(Values after patent US20250320213A1, “Nitrogen-Containing Heterocyclic Compounds” (Pfizer Inc., priority 2024, published 2025).)
